In patent US20100311798A1, “2-AMINOOXAZOLINES AS TAAR1 LIGANDS” (priority 2009, published 2010):

These compounds were tested against mouse TAAR1 (Mus musculus, UniProt Q923Y8) (assay: Radioligand binding to TAAR1 in membranes of stably transfected HEK293 cells).
mouse TAAR1, sequence (Q923Y8 whole entry): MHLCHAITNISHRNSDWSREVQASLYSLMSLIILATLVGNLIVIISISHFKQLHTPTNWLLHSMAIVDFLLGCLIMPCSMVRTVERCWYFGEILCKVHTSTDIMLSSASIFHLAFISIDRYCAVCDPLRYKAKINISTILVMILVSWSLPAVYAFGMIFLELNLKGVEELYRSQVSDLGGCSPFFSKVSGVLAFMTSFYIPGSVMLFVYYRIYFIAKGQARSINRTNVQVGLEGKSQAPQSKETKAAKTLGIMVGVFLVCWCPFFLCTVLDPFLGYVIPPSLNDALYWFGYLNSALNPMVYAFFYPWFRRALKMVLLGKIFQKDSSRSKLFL

Row | Kd [nM] | Structure (SMILES) | Ki [nM]
1 |  | C[C@@H]1OC(N)=N[C@@H]1CCc1ccccc1 [Example 7, (4R,5S)-5-Methyl-4-phenethyl-4,5-dihydro-oxazol-2-ylamine] | 27.3
2 |  | CC1OC(N)=N[C@H]1Cc1ccccc1 (single isomer, unassigned) [Example 12] | 159
3 |  | C[C@H]1OC(N)=N[C@H]1CCCc1ccc(Cl)cc1 [Example 17, (4S,5R)-4-[3-(4-Chloro-phenyl)-propyl]-5-methyl-4,5-dihydro-oxazol-2-ylamine] | 0.3
4 |  | C[C@@H]1OC(N)=N[C@H]1CCc1ccc(Cl)c(Cl)c1 [Example 15a, (4S,5S)-4-[2-(3,4-dichloro-phenyl)-ethyl]-5-methyl-4,5-dihydro-oxazol-2-ylamine] | 8
5 |  | C[C@@H]1OC(N)=N[C@H]1CCCc1ccccc1 [Example 11a, (4S,5S)-5-methyl-4-(3-phenyl-propyl)-4,5-dihydro-oxazol-2-ylamine] | 5.8
6 |  | CC1OC(N)=N[C@H]1CCc1ccccc1 (single isomer, unassigned) [Example 8] | 1.7
7 |  | C[C@H]1OC(N)=N[C@H]1CCC1CCCCC1 [Example 13a, (4S,5R)-4-(2-cyclohexyl-ethyl)-5-methyl-4,5-dihydro-oxazol-2-ylamine] | 52.7
8 |  | C[C@H]1OC(N)=N[C@H]1CCc1ccc(Cl)c(Cl)c1 [Example 15, (4S,5R)-4-[2-(3,4-Dichloro-phenyl)-ethyl]-5-methyl-4,5-dihydro-oxazol-2-ylamine] | 0.6
9 |  | C[C@H]1OC(N)=N[C@H]1Cc1ccccc1 [Example 12a, (4S,5R)-4-benzyl-5-methyl-4,5-dihydro-oxazol-2-ylamine] | 175
10 |  | C[C@@H]1OC(N)=N[C@H]1CCC1CCCCC1 [Example 13, (4S,5S)-4-(2-Cyclohexyl-ethyl)-5-methyl-4,5-dihydro-oxazol-2-ylamine] | 13.3
11 |  | C[C@H]1OC(N)=N[C@H]1CCCc1ccccc1 [Example 11, (4S,5R)-5-Methyl-4-(3-phenyl-propyl)-4,5-dihydro-oxazol-2-ylamine] | 0.9
12 | 60 | c1ccc2c(c1)CCCC2C1=NCCN1 (racemic) [reference compound] | 
13 |  | C[C@H]1OC(N)=N[C@H]1CCc1ccc(Cl)cc1 [Example 14, (4S,5R)-4-[2-(4-Chloro-phenyl)-ethyl]-5-methyl-4,5-dihydro-oxazol-2-ylamine] | 0.7
14 |  | C[C@@H]1OC(N)=N[C@H]1CCc1ccc(Cl)cc1 [Example 14a, (4S,5S)-4-[2-(4-chloro-phenyl)-ethyl]-5-methyl-4,5-dihydro-oxazol-2-ylamine] | 1.8
15 |  | CCC1OC(N)=N[C@H]1CCc1ccccc1 (stereo partly drawn) [Example 9, (S)-5-Ethyl-4-phenethyl-4,5-dihydro-oxazol-2-ylamine] | 17.1
16 |  | C[C@H]1OC(N)=N[C@H]1CCc1ccccc1 [Example 8a, (4S,5R)-5-methyl-4-phenethyl-4,5-dihydro-oxazol-2-ylamine] | 3.1
